Data published in patent publication US9119777B2 (MICRODOSE THERAPEUTX, INC., priority 2008, dated 2015).
Where two headings read alike, the source gives them in different places.

What was measured:
[1] = tested on: mean arterial blood pressure and heart rate; experiment: Mean arterial blood pressure and heart rate after pulmonary delivery; type: in vivo, guinea pig
From the text: (§1) Each point represents the mean value and the vertical bars show s.e. mean.

[2] = cited from earlier work
[3] = tested on: methacholine induced bronchoconstriction; experiment: Methacholine induced bronchoconstriction after pulmonary (i.t.) dry powder delivery; type: in vivo, guinea pig
From the text: Each bar represents the mean value and the vertical lines show s.e. mean.
as §1

[4] = cited from earlier work; remark: listed apart in the source
[5] = tested on: receptors in the salivary glands; details: cited from earlier work
[6] = Pharmacokinetic profile following dry powder insufflation; type: in vivo, guinea pig; details: anaesthetized guinea pigs, dry powder insufflation of oxybutynin
[7] = in vivo; cited from earlier work

CCN(CC)CC#CCOC(=O)C(O)(c1ccccc1)C1CCCCC1 (racemic) [oxybutynin, 4-diethylaminobut-2-butynyl phenylcyclohexyl-glycolate]
Effect on arterial pressure and heart rate ([1]; guinea pig model of bronchoconstriction): without a prolonged significant effect on arterial pressure and heart rate | Influence on cardiovascular conditions, compared with Tiotropium ([1]; oxybutynin xinafoate, pulmonary, first 6 hours, anaesthetized guinea pigs): did not have as significant an influence on cardiovascular conditions | pKa [2]: 8.24 | Bronchoprotective effect in guinea pig model of bronchoconstriction [3]: significantly bronchoprotective effect from 0.25 to 24 hours | Oral half life ([4]; oral): 2.5 h

CCNCC#CCOC(=O)C(O)(c1ccccc1)C1CCCCC1 (centres unmarked) [DEO, N-desethyloxybutynin]
Affinity and binding duration at receptors in the salivary glands, compared with oxybutynin [5]: greater affinity and binding duration | Systemic levels of DEO resulting from pulmonary delivery [6]: below the LOQ of the detection method | Levels of DEO ([4]; oral therapy): 10 to 40 ng/mL | DEO circulating concentration relative to parent compound ([4]; oxybutynin ER, oral): approximately 4 times | DEO circulating concentration relative to parent compound ([4]; oxybutynin IR, oral): approximately 10 times | Levels of DEO ([4]; transdermal therapy): ~3 ng/mL

CCC(=O)O[C@]1(C(=O)SCF)[C@H](C)C[C@H]2[C@@H]3C[C@H](F)C4=CC(=O)C=C[C@]4(C)[C@@]3(F)[C@@H](O)C[C@@]21C [fluticasone propionate]
Mean absorption time in the lungs [7]: 5 to 7 h

CC1(C)O[C@@H]2C[C@H]3[C@@H]4CCC5=CC(=O)C=C[C@]5(C)[C@@]4(F)[C@@H](O)C[C@]3(C)[C@]2(C(=O)CO)O1 [triamcinolone acetonide]
Mean absorption time in the lungs [7]: 2.9 h

O=C(O)c1ccc2ccccc2c1O [xinafoic acid]
pKa [2]: 2.7
